Source: patent publication US11344601B2, “Tumor microenvironment-related target TAK1 and application thereof in inhibition of tumor” (Shanghai Institutes for Biological Sciences, Chinese …, priority 2017, dated 2022)

Experiments:
[1] = tested on: p38MAPK, JNK, ATM; assay: Western blot of JNK, p38MAPK and ATM phosphorylation in damaged stromal cells; assay type: cell-based, human; settings: Day 7 after bleomycin and/or 5Z-7
Method: The nitrocellulose filter membrane was blocked at room temperature for 1 h in the blocking solution (TBST containing 5% skim milk powder (0.1% Tween-20 in TBS)), incubated overnight at 4° C. in a primary antibody solution, rinsed at TBST room temperature for 3 times, each for 2 min. The corresponding secondary antibody conjugated with HRP prepared with the blocking solution was added, the filter membrane was incubated at room temperature for 0.5 h. The filter membrane was rinsed with PBST at room temperature for 3 times, each for 2 min.

[2] = tested on: prostate cancer epithelial cells; assay: Stromal-epithelial co-culture: PSC27 extracellular fluid on proliferation, migration, invasion of prostate cancer epithelial cells; assay type: cell-based, human; settings: extracellular fluid of bleomycin-damaged PSC27 treated with TAK1 inhibitor
Method: c. Experimental Treatment In Vitro • 100 nM docetaxel (DTX), 100 nM paclitaxel (PTX), 200 nM vincristine (VCR), 50 μg/ml bleomycin (BLEO), 1 μM mitoxantrone (MIT), or 10 Gy ^137CS ionizating radiation (γ-radiation at 743 rad/min, RAD) was added to the culture medium when PSC27 cells grown to 80% (PSC27-Pre) to produce cell damage. After drug treatment for 6 hours, the cells were simply washed by PBS for 3 times and kept in the culture medium for 7 to 10 days, followed by subsequent experiments. 2. Plasmid Preparation and Lentiviral Transfection • Full-length human IKKα and Flag were cloned as a fusion protein between the restriction sites BamHI and XbaI in the expression vector pCR3.1. Full-length human mTOR and GST were cloned as a fusion protein between a pair of NotI restriction sites in the expression vector pcDNA3. Packaging cell line 293FT was used for cell transfection and lentivirus production. The sequences of small hairpin RNAs (shRNAs) for knocking out TRAF6 were as follows: • 5′-[…]-3′(SEQ ID NO: 1); and • 5′-[…]-3′ (SEQ ID NO: 2). • The sequences of small hairpin RNAs (shRNAs) for knocking out TAK1 were as follows: • 5′-[…]-3′(SEQ ID NO: 3); and • 5′-[…]-3′(SEQ ID NO: 4). • The sequences of small hairpin RNAs (shRNAs) for knocking out IL-1α were as follows: • 5′-[…]-3′(SEQ ID NO: 5); and • 5′-[…]-3′ (SEQ ID NO: 6). 3. Immunofluorescence and Histochemical Analysis • Mouse monoclonal antibody anti-phospho-Histone H2A.X (Ser139) (clone JBW301, Millipore) or mouse monoclonal antibody anti-Phosphor-53BP1 (Cat #sc-135748, Santa Cruz), and secondary antibody Alexa Fluor® 488 (or 594)-conjugated F(ab′)2 were added sequentially to slides on which cells were fixed. […] FV1000 laser scanning confocal microscopy (Olympus) was used to obtain cellular confocal fluorescence images to determine the extent of DNA damage. • Antibody anti-TAK1 used for histological IHC staining in clinical prostate, non-small cell lung cancer patients and breast cancer patients, was purchased from Proteintech, idib. […] Quantitative PCR for Measuring Gene Expression […]

Compound: COc1cc(O)c2c(c1)/C=C/C[C@H](O)[C@H](O)C(=O)/C=C\C[C@H](C)OC2=O [5Z-7, 5z-7-oxozeaenol]
- phosphorylation of JNK and p38MAPK [1]: decreased significantly
- phosphorylation status of ATM stimulated by DNA damage [1]: does not depend on whether TAK1 activity is inhibited
- in vitro migration of prostate cancer epithelial cells promoted by stromal cell extracellular fluid [2]: significantly reduced
- invasion of prostate cancer epithelial cells promoted by stromal cell extracellular fluid [2]: significantly weakened
- proliferation of prostate cancer epithelial cells promoted by stromal cell extracellular fluid [2]: decreased significantly
